Values of other authors, collected in patent publication US9889150B2, “Agents for the prevention and/or treatment of central nervous system damage” (The University Of Liverpool, priority 2012, dated 2018).

Experiments:
FGFR3 = FGFR3 (Homo sapiens, UniProt P22607); settings: cited from earlier work
OECs and astrocytes = settings: previous work; cited from earlier work

Chain of FGFR3 (P22607 23-806, species assumed): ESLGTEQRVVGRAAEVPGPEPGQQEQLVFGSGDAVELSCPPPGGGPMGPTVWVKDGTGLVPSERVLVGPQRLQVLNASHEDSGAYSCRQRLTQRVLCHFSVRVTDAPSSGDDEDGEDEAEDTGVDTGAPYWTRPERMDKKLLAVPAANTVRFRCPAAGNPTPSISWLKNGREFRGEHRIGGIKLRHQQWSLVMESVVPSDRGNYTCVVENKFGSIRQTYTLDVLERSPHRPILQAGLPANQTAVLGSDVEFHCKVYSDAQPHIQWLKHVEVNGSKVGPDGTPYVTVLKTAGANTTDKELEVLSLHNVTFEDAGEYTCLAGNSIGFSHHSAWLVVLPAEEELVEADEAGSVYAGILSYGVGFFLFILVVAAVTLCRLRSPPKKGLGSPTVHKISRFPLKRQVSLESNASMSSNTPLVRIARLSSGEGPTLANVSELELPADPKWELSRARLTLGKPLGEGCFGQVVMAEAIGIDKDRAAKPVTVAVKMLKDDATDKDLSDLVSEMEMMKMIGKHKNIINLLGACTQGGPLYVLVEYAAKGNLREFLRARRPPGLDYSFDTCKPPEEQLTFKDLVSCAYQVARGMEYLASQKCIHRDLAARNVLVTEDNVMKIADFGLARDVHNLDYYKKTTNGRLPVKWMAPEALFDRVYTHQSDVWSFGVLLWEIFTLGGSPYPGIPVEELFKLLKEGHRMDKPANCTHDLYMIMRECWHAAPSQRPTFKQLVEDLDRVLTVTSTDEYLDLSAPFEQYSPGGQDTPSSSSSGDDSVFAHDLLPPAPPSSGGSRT

For `Cc1c[nH]c(/C=C2\C(=O)Nc3ccccc32)c1CCC(=O)O` [SU5402], the “inhibition of FGFR3” value (FGFR3) is given as “effectively inhibit FGFR3” and the “SCM-induced boundary formation in OEC/astrocyte cultures” value (OECs and astrocytes) is given as “disrupts SCM-induced boundary formation”.
